In patent US5440016A, “Peptides of the formula (KFmoc) ZZZ and their uses” (priority 1993, dated 1995):
Square brackets hold non-standard residues; d marks the D form. Peptide text beside a SMILES is read from it. * marks the point of attachment. Phe(4-NO2) = N[C@@H](Cc1ccc([N+](=O)[O-])cc1)C(=O)O; Met(O2) = CS(=O)(=O)CC[C@H](N)C(=O)O; Fmoc = O=C(OCC1c2ccccc2-c2ccccc21)*; Thz = O=C(O)[C@@H]1CSCN1; Nva = CCC[C@H](N)C(=O)O; Abu = CC[C@H](N)C(=O)O; Aib = CC(C)(N)C(=O)O; GABA = NCCCC(=O)O

System: Human red blood cells (RBCs)
Assay: Hemolytic activity
Assay type: cell-based
Conditions: Tables 18-21
Description: Each assay was carried out in 96-well culture tissue plates. Four wells per plate contain 125 μl of a non-peptide positive control (1% Triton in de-ionized water), and four wells per plate contain 125 μl of a control blank, phosphate buffered saline (PBS). The hemolytic peptide melittin was used as comparative control. The controls served to detect possible contamination and to calculate the percent hemolysis of each peptide. Human red blood cells (RBCs) were washed with PBS and centrifuged to separate them from the serum. The cells were then resuspended in PBS to a final suspension of 0.5% RBC. 125 μl of this suspension was added to the peptides and controls solution. The release of hemoglobin resulting from the cell lysis was determined by measuring the OD at 414 nm of 100 μl of the supernatant.

Compound | HD50 (concentration necessary to lyse 50% of the cells) [µg/mL]
N=C(N)NCCC[C@H](NC(=O)[C@H](CCCCN)NC(=O)[C@H](Cc1c[nH]c2ccccc12)NC(=O)[C@H](CCCCN)NC(=O)OCC1c2ccccc2-c2ccccc21)C(N)=O [(KFmoc)WKR-NH2] (Fmoc-KWKR-NH2) | 387
NCCCC[C@H](NC(=O)OCC1c2ccccc2-c2ccccc21)C(=O)N[C@@H](Cc1c[nH]c2ccccc12)C(=O)N[C@@H](CCCCN)C(=O)N[C@@H](CS)C(N)=O [(KFmoc)WKC-NH2] (Fmoc-KWKC-NH2) | 43
CC[C@H](NC(=O)[C@H](CCCCN)NC(=O)[C@H](Cc1c[nH]c2ccccc12)NC(=O)[C@H](CCCCN)NC(=O)OCC1c2ccccc2-c2ccccc21)C(N)=O [(KFmoc)WK(aABA)-NH2] (Fmoc-KWK[Abu]-NH2) | 449
CC[C@H](NC(=O)[C@H](Cc1ccc(O)cc1)NC(=O)[C@H](Cc1c[nH]c2ccccc12)NC(=O)[C@H](CCCCN)NC(=O)OCC1c2ccccc2-c2ccccc21)C(N)=O [(KFmoc)WY(aABA)-NH2] (Fmoc-KWY[Abu]-NH2) | 114
NCCCC[C@H](NC(=O)OCC1c2ccccc2-c2ccccc21)C(=O)N[C@@H](Cc1c[nH]c2ccccc12)C(=O)N[C@@H](CCCCN)C(=O)N[C@@H](Cc1ccc([N+](=O)[O-])cc1)C(N)=O [(KFmoc)WK(NO2 F)-NH2] (Fmoc-KWK[Phe(4-NO2)]-NH2) | 67
NCCCC[C@H](NC(=O)OCC1c2ccccc2-c2ccccc21)C(=O)N[C@@H](Cc1c[nH]c2ccccc12)C(=O)N[C@@H](CCCCN)C(=O)N[C@@H](Cc1c[nH]c2ccccc12)C(N)=O [(KFmoc)WKW-NH2] (Fmoc-KWKW-NH2) | 37
N=C(N)NCCC[C@H](NC(=O)[C@@H](Cc1ccccc1)NC(=O)[C@H](Cc1c[nH]c2ccccc12)NC(=O)[C@H](CCCCN)NC(=O)OCC1c2ccccc2-c2ccccc21)C(N)=O [(KFmoc)WfR-NH2] (Fmoc-KW[dF]R-NH2) | 122
CC(C)C[C@H](NC(=O)[C@H](CCCCN)NC(=O)[C@H](Cc1c[nH]c2ccccc12)NC(=O)[C@H](CCCCN)NC(=O)OCC1c2ccccc2-c2ccccc21)C(N)=O [(KFmoc)WKL-NH2] (Fmoc-KWKL-NH2) | 73
CS(=O)(=O)CC[C@H](NC(=O)[C@H](CCCCN)NC(=O)[C@H](Cc1c[nH]c2ccccc12)NC(=O)[C@H](CCCCN)NC(=O)OCC1c2ccccc2-c2ccccc21)C(N)=O [(KFmoc)WK(MetO2)-NH2] (Fmoc-KWK[Met(O2)]-NH2) | 437
CC[C@@H](C)[C@@H](NC(=O)[C@@H](CS)NC(=O)[C@H](CCCCN)NC(=O)OCC1c2ccccc2-c2ccccc21)C(=O)N[C@@H](CS)C(N)=O [(KFmoc)ciC-NH2] (Fmoc-K[dC][dI]C-NH2) | 400
NCCCC[C@H](NC(=O)OCC1c2ccccc2-c2ccccc21)C(=O)N[C@@H](Cc1c[nH]c2ccccc12)C(=O)N[C@@H](CCCCN)C(=O)N[C@@H](Cc1ccc(O)cc1)C(N)=O [(KFmoc)WKY-NH2] (Fmoc-KWKY-NH2) | 156
C[C@@H](O)[C@H](NC(=O)[C@H](CCCCN)NC(=O)[C@H](Cc1c[nH]c2ccccc12)NC(=O)[C@H](CCCCN)NC(=O)OCC1c2ccccc2-c2ccccc21)C(N)=O [(KFmoc)WKT-NH2] (Fmoc-KWKT-NH2) | 367
N=C(N)NCCC[C@H](NC(=O)[C@H](Cc1ccc(O)cc1)NC(=O)[C@H](Cc1c[nH]c2ccccc12)NC(=O)[C@H](CCCCN)NC(=O)OCC1c2ccccc2-c2ccccc21)C(N)=O [(KFmoc)WYR-NH2] (Fmoc-KWYR-NH2) | 45
NCCCC[C@H](NC(=O)OCC1c2ccccc2-c2ccccc21)C(=O)N[C@@H](Cc1c[nH]c2ccccc12)C(=O)N[C@@H](CCCCN)C(=O)N[C@@H](CC(N)=O)C(N)=O [(KFmoc)WKN-NH2] (Fmoc-KWKN-NH2) | 204
CC(C)(NC(=O)[C@H](CCCCN)NC(=O)[C@H](Cc1c[nH]c2ccccc12)NC(=O)[C@H](CCCCN)NC(=O)OCC1c2ccccc2-c2ccccc21)C(N)=O [(KFmoc)WK(aAIB)-NH2] (Fmoc-KWK[Aib]-NH2) | 447
CSCC[C@H](NC(=O)[C@H](CCCCN)NC(=O)[C@H](Cc1c[nH]c2ccccc12)NC(=O)[C@H](CCCCN)NC(=O)OCC1c2ccccc2-c2ccccc21)C(N)=O [(KFmoc)WKM-NH2] (Fmoc-KWKM-NH2) | 102
NCCCC[C@H](NC(=O)OCC1c2ccccc2-c2ccccc21)C(=O)N[C@@H](Cc1c[nH]c2ccccc12)C(=O)N[C@@H](CCCCN)C(=O)N1CSC[C@H]1C(N)=O [(KFmoc)WK(Thiopro)-NH2] (Fmoc-KWK[Thz]-NH2) | 108
NCCCC[C@H](NC(=O)OCC1c2ccccc2-c2ccccc21)C(=O)N[C@@H](Cc1c[nH]c2ccccc12)C(=O)N[C@@H](Cc1ccc(O)cc1)C(=O)N1CSC[C@H]1C(N)=O [(KFmoc)WY(Thiopro)-NH2] (Fmoc-KWY[Thz]-NH2) | 488
CC[C@@H](C)[C@@H](NC(=O)[C@@H](CS)NC(=O)[C@H](CCCCN)NC(=O)OCC1c2ccccc2-c2ccccc21)C(=O)NCCCC(N)=O [(KFmoc)ci(gABA)-NH2] (Fmoc-K[dC][dI][GABA]-NH2) | 54
NCCCC[C@H](NC(=O)OCC1c2ccccc2-c2ccccc21)C(=O)N[C@@H](Cc1c[nH]c2ccccc12)C(=O)N[C@H](Cc1ccccc1)C(=O)N[C@@H](Cc1ccc(O)cc1)C(N)=O [(KFmoc)WfY-NH2] (Fmoc-KW[dF]Y-NH2) | 42
CC[C@H](NC(=O)[C@H](NC(=O)[C@@H](CS)NC(=O)[C@H](CCCCN)NC(=O)OCC1c2ccccc2-c2ccccc21)[C@H](C)CC)C(N)=O [(KFmoc)ci(aABA)-NH2] (Fmoc-K[dC][dI][Abu]-NH2) | 29
NCCCC[C@H](NC(=O)OCC1c2ccccc2-c2ccccc21)C(=O)N[C@@H](Cc1c[nH]c2ccccc12)C(=O)N[C@@H](CCCCN)C(=O)NCC(N)=O [(KFmoc)WKG-NH2] (Fmoc-KWKG-NH2) | 449
NCCCC[C@H](NC(=O)OCC1c2ccccc2-c2ccccc21)C(=O)N[C@@H](Cc1c[nH]c2ccccc12)C(=O)N[C@H](Cc1ccccc1)C(=O)N1CCC[C@H]1C(N)=O [(KFmoc)WfP-NH2] (Fmoc-KW[dF]P-NH2) | 40
CCC[C@H](NC(=O)[C@H](CCCCN)NC(=O)[C@H](Cc1c[nH]c2ccccc12)NC(=O)[C@H](CCCCN)NC(=O)OCC1c2ccccc2-c2ccccc21)C(N)=O [(KFmoc)WK(Nve)-NH2] (Fmoc-KWK[Nva]-NH2) | 98
NCCCC[C@H](NC(=O)OCC1c2ccccc2-c2ccccc21)C(=O)N[C@@H](Cc1c[nH]c2ccccc12)C(=O)N[C@@H](CCCCN)C(=O)N[C@@H](CO)C(N)=O [(KFmoc)WKS-NH2] (Fmoc-KWKS-NH2) | 206
